Consider 19 compounds from article PMC9460038, “Antigiardial Activity of Foeniculum vulgare Hexane Extract and Some of Its Constituents” (Plants, 2022).

One data set relates to Vero cells. The data set is described as follows: Cytotoxic activity on Vero cell line (Trypan blue, 24 h). Type of data set: cell-based. Particulars: for IC50: Chlorocebus sabaeus, read-out: Vero Cells IC50 (IC95%); for IC50 / Vero Cells IC50 (IC95%): 24 h; for Selectivity Index (SI): ratio of IC50 in Vero cells to IC50 in G. duodenalis. Here is the method: Cytotoxicity assay was performed on Vero cell line (ATCC CCL-81), as previously described. Briefly, Vero cells were cultivated in Roswell Park Memorial Institute (RPMI) medium supplemented with 10% fetal bovine serum (FBS). […] Each compound was dissolved in dimethyl sulfoxide (DMSO) and sterilized by filtration, and brought to final concentrations of 487, 243.5, 121.75 and 60.875 μg/mL with RPMI medium supplemented with 10% FBS. The cell suspension was adjusted to 1 × 10^4 cells/mL with RPMI medium supplemented with 10% FBS. Cell suspension (200 μL) was placed into a 96-well plate and incubated at 37 °C in a 5% CO2 atmosphere for 24 h. Each compound solution was added to each well containing the Vero cells and incubated for 24 h. The assay was carried out in triplicate. The number of cells were determined in a Neubauer chamber, while the percentage of viable cells was measured with the Trypan blue staining method.
The SI is the ratio of the IC50 concentration in host cells (Vero cells) to that in parasite (G. duodenalis).

The subject of data set [1] is G. duodenalis trophozoites. The data set is described as follows: Antigiardial activity, vial microassay (growth inhibition of trophozoites, 24 h). As to conditions: for inhibition at 300 µg/mL / IC50: Giardia duodenalis; for inhibition at 300 µg/mL: read-out: % Inhibition at 300 μg/mL; for % Inhibition at 300 μg/mL: G. duodenalis trophozoites; for G. duodenalis IC50 (IC95%): trophozoites, Probit, 95% confidence limits in brackets.
Protocol: G. duodenalis strain 0989: IMSS was used. G. duodenalis was cultured in TYI-S-33 media supplemented with bile, as previously described [26]. G. duodenalis trophozoites were sub-cultured three times a week. Parasites used in the assays to determine drug susceptibility were harvested when cultures reached the middle of their logarithmic growth phase.
The concentration of all standard drugs was adjusted to 10 mg/mL. Metronidazole (used as a positive control), and pure compounds were dissolved in (DMSO). All stock solutions were stored at –20 °C until use. Before use in the assays, serial two-fold dilutions of the stock solutions were made in basal TYI medium (without serum). Fifty micro liters of each solution was added into 1 mL glass screw-capped cylindrical vials with a conical interior (Wheaton vial). All vials were filled with 950 μL of a freshly prepared parasite suspension in TYI-S-33 medium plus 10 % bovine serum. G. duodenalis was tested at density of 2 × 10^5 trophozoites/mL. All vials were incubated at 36 °C for 24 h. The vials were then chilled on iced water for 20 min, and the number of trophozoites per milliliter in each tube were counted using a hemocytometer (Neubauer cell-counter chamber) [29]. The percentage of growth inhibition with respect to untreated controls was then determined.
All experiments were performed in triplicate and in at least three independent bioassays (n = 9 cultures for each analyzed compound). The data were analyzed using GraphPad Prism software version 5.0 (USA). The half-maximum inhibitory concentration (IC50) of each drug was calculated by Probit analysis and 95% confidence limits were calculated.

Data set [2] deals with Mycobacterium tuberculosis H37Rv. Further details: method as in PMID 22797778. Particulars: sensitive strain H37Rv; cited from earlier work.
For data set [3] the following is noted: source not stated; cited from earlier work.
The mark [4] stands for this setting: Vero cells, Probit, 95% confidence limits in brackets.
Setting [5] is: read-out: G. duodenalis IC50 (IC95%), trophozoites, 24 h, Probit, 95% confidence limits in brackets.

Values after ≈ are worked out from the molar mass of the structure shown. Like-named read-outs stand apart in the source and are kept apart here.

With `Oc1cccc(O)c1` [1,3-Benzenediol], the concentration for half-maximal inhibition (IC50) in the data set on Vero cells (setting [4]) amounted to 438 µg/mL (≈ 3980 µM); in data set [1] (setting [5]), 169 µg/mL (≈ 1530 µM). For the same compound, the “Selectivity Index (SI)” value in the data set with Vero cells is given as 2.5. The inhibition at 300 µg/mL in data set [1] worked out at 56%.
`C=C1[C@H]2CC[C@H](C2)C1(C)C` [(1R,4S) (+)-Camphene]: the “Vero Cells IC50 (IC95%)” value in the data set on Vero cells (setting [4]) is given as 494.3 (492.1–496.4) μg/mL. Further, in data set [1], the “% Inhibition at 300 μg/mL” value turned out to be 61% and the “G. duodenalis IC50 (IC95%)” value was 181.1 (158.1–207.9) μg/mL.
As for `CC1(C)C(=O)[C@]2(C)CCC1C2` [(R) (−)-Fenchone], in data set [1], the “% Inhibition at 300 μg/mL” value was 6.5%.
On the same count and under the same terms, the value for `CC(C)=CCC[C@@H](C)CCO` [(R)- (+)-β-Citronellol] was 38%; that for `CC1(C)C(=O)[C@@]2(C)CCC1C2` [(S) (+)-Fenchone] was 16%; that for `CC(C)[C@]12CC(=O)[C@H](C)[C@H]1C2` [(−)-α-Tujone] was 14%.
As to `C=CCc1ccc(OC)cc1` [Estragole], the results for the IC50 (in the data set with Vero cells (Vero); in data set [1] (read-out: G. duodenalis IC50 (IC95%))) were 259 µg/mL (≈ 1750 µM) and 150 µg/mL (≈ 1010 µM), respectively. Besides, the “Selectivity Index (SI)” value in the data set with Vero cells was found to be 1.7. In addition, the inhibition at 300 µg/mL in data set [1] was found to be 49%.
For `CC(=O)OC1C2(C)CCC(C2)C1(C)C` (stereo not shown) [Fenchylacetate], the “% Inhibition at 300 μg/mL” value in data set [1] is given as 38.5%.
For `Cc1ncc([N+](=O)[O-])n1CCO` [Metronidazole, reference compound], the IC50 amounted to 83.5 µg/mL (≈ 488 µM) with Vero cells (setting [4]) and 0.5 µg/mL (≈ 2.92 µM) in data set [1] (setting [5]). For the same compound, the inhibition at 300 µg/mL in data set [1] is 100%.
As for `CCCCCCCC/C=C\CCCCCCCC(=O)O` [Oleic acid], the inhibition at 300 µg/mL in data set [1] came to 24%.
Same read-out and setting: the result for `CC(C)(O)C(C)(C)O` [Pinacol] reads 2%; that for `CC1=CCC(=C(C)C)CC1` [Terpinolene], 30%.
On to `CCCCCC/C=C/C=C/C=O` [Trans, trans-2,4-undecadienal, trans, trans-2,4-undecadienal], for which the MIC in data set [2] is 25 µg/mL (≈ 150 µM). For the same compound, the IC50 in the data set with Vero cells (setting [4]) turned out to be 589 µg/mL (≈ 3540 µM). Moreover, in the data set on Vero cells, the “Selectivity Index (SI)” value is 8.1. For the same compound, in data set [1], the inhibition at 300 µg/mL turned out to be 97% and the “G. duodenalis IC50 (IC95%)” value is listed as 72.1 (57.7–90.1) μg/mL. Moreover, the IC50 in data set [1] (setting [5]) amounted to 72.1 µg/mL (≈ 434 µM). In data set [3], the “log P” value is given as 3.8.
In the case of `C/C=C/c1ccc(OC)cc1` [Trans-anethol], the “% Inhibition at 300 μg/mL” value in data set [1] turned out to be 17%.
For `CCCCCCCCCCC=O` [Undecanal], the inhibition at 300 µg/mL in data set [1] turned out to be 25%.
With `Cc1ccccc1C(C)C` [o-Cymene], the “% Inhibition at 300 μg/mL” value in data set [1] is reported as 30%.
In the case of `COc1ccc(C=O)cc1` [p-Anisaldehyde], the IC50 in the data set with Vero cells (setting [4]) is 541 µg/mL (≈ 3970 µM); in data set [1] (setting [5]), 197 µg/mL (≈ 1450 µM). The “Selectivity Index (SI)” value in the data set with Vero cells is listed as 2.7. Further, the inhibition at 300 µg/mL in data set [1] is 67%.
Regarding `CC1=CCC(C(C)C)=CC1` [γ-Terpinene], in data set [1], the inhibition at 300 µg/mL is 24%.
As for (R) (−)-Carvone, the “Vero Cells IC50 (IC95%)” value with Vero cells (setting [4]) is listed as 350.7 (348.4–353.0) μg/mL. In data set [1], the “% Inhibition at 300 μg/mL” value worked out at 66% and the “G. duodenalis IC50 (IC95%)” value is given as 207.0 (162.2–267.3) μg/mL.

The IC50 is the concentration needed to halve the response being measured. A word on the % Inhibition: it is the change of the read-out against control, counted positive when it falls. Lower therefore signals little suppression. What is called MIC is the least concentration at which growth counts as inhibited. Broadly, the log P is the decadic logarithm of the partition coefficient of the neutral form, usually between octanol and water.
